# Data: paper PMC9406419, “OATD-02 Validates the Benefits of Pharmacological Inhibition of Arginase 1 and 2 in Cancer” (Cancers, 2022)
# System: CT26 tumours
# Assay: Syngeneic CT26 model, combination with epacadostat and anti-PD-L1 antibody
# Type: in vivo, mouse
# Conditions: suboptimal doses: OATD-02 50 mg/kg PO BID; epacadostat 30 mg/kg PO BID; anti-PD-L1 2.5 mg/kg IP days 8, 10, 12, 14, 16
# Procedure: CT26 and K562 in vivo experiments were conducted at Molecure SA. All experimental procedures were approved by the 1st Local Ethics Committee in Warsaw (Poland). For the syngeneic CT26 model, 7–8-week old BALB/c females (n = 9–18 per group, BALB/cAnNCrl, Charles River Laboratories) were injected subcutaneously in the right flank with 5 × 10^5 CT26 cells. […] Anti-PD-L1 antibody (InVivoPlus anti-mouse PD-L1, clone 10F.9G2, BioXCell, lot 615416D1) was injected intraperitoneally at 2.5 mg/kg on days: 8, 10, 12, 14 and 16 post tumour cells inoculation. Control groups received vehicle (saline) or isotype antibody (InVivoPlus rat IgG2b, anti-KLH, BioXCell, lot 629816D1). For the xenograft K562 model, 7–8 week-old athymic nude mice (n = 8–11 per group, Crl:NU(NCr)-Foxn1^nu, Charles River Laboratories) or NK cell-deficient Fox Chase SCID Beige mice (n = 10–12 per group, CB17.Cg-Prkdc^scidLyst^bg-J/Crl, Charles River Laboratories) were injected subcutaneously in the right flank with 1 × 10^7 K562 cells. […] Tumour volume measured by a digital calliper (width × length × depth × π/6) was recorded three times per week. Animals were euthanized when tumours were necrotized or volume exceeded 2000 mm^3. Renca in vivo efficacy study was performed at Crown Biosciences Inc. (Taicang, China). […] Tumour volumes (length × width^2 × 0.5) were measured twice per week. […]
compound,measurement,value
"NS(=O)(=O)NCCNc1nonc1C(=NO)Nc1ccc(F)c(Br)c1 [epacadostat, reference compound]","TGI, CT26 tumor growth inhibition - day 24",41%
